One substance from patent publication US10493159B2, “Protein transduction domains mimics” (University of Massachusetts, priority 2010, dated 2019) can be followed below.

The assay is described as follows: Transport activity, carboxyfluorescein release from vesicles, Hill analysis. To be noted: EYPC⊃CF vesicles, no counterion activator. As to the method:
Transport activities for these novel PTDMs were determined using the standard biophysical assay well documented in the CPP literature. (Hennig, et al. 2008 J. Am. Chem. Soc. 130, 10338.) Specifically, 5(6)-carboxyfluorescein (CF) was used as a fluorescent probe in egg yolk phosphatidylcholine large unilamellar vesicles (EYPC-LUVs). The activity of these transporters increased with increasing polymer concentration at a constant vesicle concentration as detected by CF emission intensity, yielding plots of fluorescence intensity versus polymer concentration (FIG. 42, FIG. 43). […] (Sakai, et al. 2003 J. Am. Chem. Soc. 125, 14348; Sakai, et al. 2006 Soft Matter 2, 636; Sakai, et al. 2005 Chembiochem 6, 114; Hennig, et al. 2008 J. Am. Chem. Soc. 130, 10338; Nishihara, et al. 2005 Org. Biomol. Chem., 3, 1659; Perret, et al. 2005 J. Am. Chem. Soc. 127, 1114.) This analysis gave Ymax (maximal CF release relative to complete release by Triton X-100), EC50 (effective polymer concentration needed to reach Ymax/2), and the Hill coefficient n (see Table 2).
Preparation of EYPC-LUVs⊃CF. […]
Polymer Activity in EYPC-LUVs⊃CF. […] The time-dependent change in fluorescence intensity It (λex=492 nm, λem=517 nm) was monitored during the addition of polymer (20 μL stock solution in DMSO) at t=100 s, and addition of 40 μl 1.2% (aq.) triton X-100 at the end of every experiment (t=900 s) (FIG. 42). […]

In the case of polyarginine, the “transport activity” value was “inactive”.
